Measurements as given in US20260306460A1, “COMPOSITION FOR REMOVING AND INHIBITING SENESCENT CELLS, AND USES THEREOF” (LIFECEUTIX CO., LTD., priority 2023, published 2026).

Legend:
[1] = test system: proliferating foreskin cells; test: Survival of proliferating human cells treated with supernatant (secreted fluid) from death-induced cells, Example 13; assay type: cell-based; conditions: 3 days; for viability at 30 µM: Homo sapiens, 72 h
Protocol: After 3 days, cell viability was measured using CellTiter-Glo Luminescent Cell Viability Assay (Promega) or light microscopy.
After treating cells with the test compound at a high concentration that induces the death of most cells in both non-senescence-induced and senescence-induced cells, the cells were washed three times with PBS to remove the test compound, and replaced with fresh medium and cultured for an additional 3 hours at the time when the compound has entered into the cell but has not yet induced cell death (approximately 1 to 3 hours after compound treatment). During this additional culture, by checking with an optical microscope, etc., the medium supernatants containing secreted fluid from normally proliferating and senescent cells in which cell death was induced were obtained. The obtained medium supernatant was replaced with the medium of normally proliferating and senescent cells, respectively, and cell survival rate was measured after 3 days.

senescent A549 cells = test: Survival of senescent A549 cells treated with supernatant from death-induced cancer cells, Example 14; assay type: cell-based, human; conditions: for viability at 30 µM: Homo sapiens
Protocol: (§1) In the same way as Examples 12 and 13, senescence of cancer (A549) cells was induced by treatment with doxorubicin or the control group (DMSO), and the cells were cultured. The cells were treated with LX-405 at a concentration of 30 μM. 3 days later, cell viability was measured using CellTiter-Glo Luminescent Cell Viability Assay (Promega) or an optical microscope. In the same manner as in Example 13, the medium supernatants comprising secreted fluid from normally proliferating and senescent cancer cells was obtained. Normally proliferating and senescent-induced cancer cells were treated with the medium supernatants.
Furthermore, other test compounds were used in the same manner in Example 12 above at high concentrations of 30 μM, 90 μM, and 270 μM, respectively, and the cultured medium supernatant comprising secreted fluid from aged cancer cells that were killed were obtained. As a result of measuring the degree of death of aged cancer cells, it was confirmed that aged cancer cells can be effectively removed, as shown in Example 12.

proliferating A549 cells = test: Survival of proliferating A549 cells treated with supernatant from death-induced cancer cells, Example 14; assay type: cell-based, human; conditions: for viability at 30 µM: Homo sapiens
Protocol: as §1

[2] = test system: doxorubicin-induced aged C57BL6J mice; test: SA-β-gal staining in doxorubicin-aged mice, Example 22-3, Table 32; assay type: in vivo, mouse; conditions: staining area, untreated aged = 100
Protocol: (§2) Eight-week-old male C57BL6J mice (KRIBB Laboratory Animal Resource Center) were acclimated to the experimental environment for one week. Afterwards, the anticancer agent doxorubicin was administered intraperitoneally at a concentration of 10 mg/kg, inducing aging for more than 10 days. The aging-induced mice were randomly assigned to experimental and control groups. LX-403 was mixed with a 10% ethanol solution of PEG400 and administered orally at a concentration of 25 mg/kg or intradermally at a concentration of 1 μM for 21 days. LX-1801 was mixed in distilled water with 4% DMSO, 30% PEG300, and 5% Tween80 and administered intradermally at a concentration of 0.4 μM daily for 21 days. LX-2001 was mixed in PBS and administered intradermally at a concentration of 2 μM daily for 21 days. LX-2002 was mixed in distilled water with 4% DMSO, 30% PEG300, and 5% Tween80 and administered intradermally at a concentration of 2 μM daily for 21 days. […] LX-2005 was mixed in distilled water with 4% DMSO, 30% PEG300, and 5% Tween80 and administered intradermally at a concentration of 90 μM daily for 21 days. LX-2007 was mixed in distilled water with 4% DMSO, 30% PEG300, and 5% Tween80 and administered intradermally at a concentration of 90 μM daily for 21 days. […] LX-3002 was mixed in distilled water with 4% DMSO, 30% PEG300, and 5% Tween80 and administered orally at a concentration of 10 mg/kg daily for 21 days. […] LX-5411 was mixed in 5% phosphate-buffered saline (PBS) and administered orally at a concentration of 10 mg/kg daily for 21 days or intradermally at a concentration of 3 μM. LX-5701 was mixed in PBS and administered orally at a concentration of 360 mg/kg daily for 21 days. LX-6807 was mixed in saline and administered intraperitoneally at a concentration of 1 mg/kg daily for 21 days. The control group received only the solution in the same volume. After the end of drug administration, the methods described in each example below were performed.
Mice were sacrificed as described in Example 7-3 of WO2023-085787 A1, and tissue sections were prepared from each organ tissue site and stained for the aging-related marker SA-β-gal.

[3] = test system: doxorubicin-induced aged C57BL6J mice; test: SASP mRNA (IL6, CXCL1, CXCL10, IL1B) in doxorubicin-aged mice, Example 22-6, Table 35; assay type: in vivo, mouse; conditions: untreated aged = 100%
Protocol: as §2
Using cDNA synthesized in the same manner as in Example 7-6 of WO2023-085787 A1, qRT-PCR was performed and analyzed for senescence-associated secretory factors (SASPs) like IL6, CXCL1, CXCL10, IL1B, etc. […] The mRNA amount of each factor after aging induction was calculated as 100% and compared with the mRNA amount of each factor after LX-5701 treatment.

[4] = A549, supernatant from No Cells
[5] = A549, A549, supernatant from death-induced proliferating cells
[6] = A549, A549, supernatant from death-induced senescent cells

Compound: COC(=O)c1ccc([C@H]2c3[nH]c4ccccc4c3C[C@H](C(=O)OC)N2C(=O)CCl)cc1 [LX-405]
- viability at 30 µM ([1]; supernatant from death-induced proliferating cells): 104%
- viability at 30 µM ([1]; supernatant from death-induced senescent cells): 100%
- Survival ([1]; supernatant from No Cells): 99.4 (±2.4) %
- Survival (senescent A549 cells; [4]): 98.2 (±2.8) %
- viability at 30 µM (senescent A549 cells; [5]): 78.8%
- viability at 30 µM (senescent A549 cells; [6]): 72.5%
- Survival (proliferating A549 cells; [4]): 101.4 (±1.3) %
- viability at 30 µM (proliferating A549 cells; [5]): 98.6%
- viability at 30 µM (proliferating A549 cells; [6]): 105%

Compound: O=C1C2CCN(CC2)C1CNC(=O)C(F)(F)F (stereo not drawn) [LX-5701]
- SA-β-gal (%), Kidney ([2]; Kidney): 64 (±9.7) %
- SA-β-gal (%), Liver ([2]; Liver): 43 (±14.2) %
- SA-β-gal (%), Lung ([2]; Lung): 68 (±14.8) %
- SA-β-gal (%), eWAT ([2]; eWAT): 66 (±10.5) %
- CXCL1 mRNA (%), Liver ([3]; Liver): 68 (±14.8) %
- CXCL10 mRNA (%), Liver ([3]; Liver): 75 (±4.1) %
- IL1β mRNA (%), Liver ([3]; Liver): 73 (±3.5) %
- IL6 mRNA (%), Liver ([3]; Liver): 64 (±7.5) %
- CXCL1 mRNA (%), eWAT ([3]; eWAT): 74 (±4.7) %
- CXCL10 mRNA (%), eWAT ([3]; eWAT): 69 (±7.0) %
- IL1β mRNA (%), eWAT ([3]; eWAT): 56 (±11.2) %
- IL6 mRNA (%), eWAT ([3]; eWAT): 55 (±15.1) %
